Data as given in patent publication US20180360782A1, “METHOD OF MODULATING RIBONUCLEOTIDE REDUCTASE” (CASE WESTERN RESERVE UNIVERSITY, priority 2015, published 2018).
Read-outs that look alike come from different tables or passages of the source. Blank lines part the entries; values can stand above or below the compound they belong to. Square brackets hold non-standard residues; d marks the D form. Peptide text beside a SMILES is read from it. ξ: configuration not given here. ξY = NC(Cc1ccc(O)cc1)C(=O)O; Sar = CNCC(=O)O

Experiments:
[1] = test system: MDA-MB-231 and HCT-116 cell lines; test: Growth inhibition screening assay (In Cell IC50); format: cell-based, human; details: 3 days with compound; for IC50: Homo sapiens, 72 h
Experimental: (§1) Cell were maintained in standard tissue culture media (RPMI1640, +10% fetal bovine serum, plus antibiotic) and grown in a standard humidified 5% CO2 incubator at 37° C. Cells were regularly tested using the MycoAlert detection kit (Lonza Biologics) and shown to be mycoplasma-free. Initial compound screening was performed using both MDA-MB-23 land HCT-116 cell lines. For moderate throughput screening (up to 120 drugs per experiment), cells were seeded into 96 well plates and allowed to attach overnight. The following day media was removed and replaced with fresh compound containing media. Each compound was tested against both cell lines at 3 concentrations; 1 μM, 10 μM and 50 μM, in duplicate. Cells were incubated with compound containing media for three days in a standard 5% CO2 tissue culture incubator. Cell growth was assessed after 3 days using the DNA dye binding assay, as originally described by LaBarca and Paigen. Relative growth was independently calculated for each cell line, based on DNA content from corresponding cells grown in control media plus diluent (DMSO). Additional growth inhibition experiments utilized either the DNA binding assay or the Promega CellTiter 96® (MTT reduction) assay, with similar results. For detailed growth inhibition assays, cells (1500-2500 depending on the growth characteristics of the cell line) were seeded in standard 96 well tissue culture plates and allowed to attach overnight. The following day media was removed and replaced with drug containing media. Each dose group consisted of 5 replicate wells, and results are reported a Relative Growth, calculated as DNA or MTT reduction per well, divided by the signal from untreated cells, both harvested 3 days after drug administration.

select cancer cell lines = test: Cellular IC50 of NSAAH library (Table 3); format: cell-based
Experimental: as §1

hRR (hRRM1 and hRRM2) [2] = target: T1, hRR (hRRM1 and hRRM2) (Homo sapiens, UniProt P23921); details: read-out: Cell-Free IC50; NSAAH library against hRR
T1 sequence (P23921 1-792): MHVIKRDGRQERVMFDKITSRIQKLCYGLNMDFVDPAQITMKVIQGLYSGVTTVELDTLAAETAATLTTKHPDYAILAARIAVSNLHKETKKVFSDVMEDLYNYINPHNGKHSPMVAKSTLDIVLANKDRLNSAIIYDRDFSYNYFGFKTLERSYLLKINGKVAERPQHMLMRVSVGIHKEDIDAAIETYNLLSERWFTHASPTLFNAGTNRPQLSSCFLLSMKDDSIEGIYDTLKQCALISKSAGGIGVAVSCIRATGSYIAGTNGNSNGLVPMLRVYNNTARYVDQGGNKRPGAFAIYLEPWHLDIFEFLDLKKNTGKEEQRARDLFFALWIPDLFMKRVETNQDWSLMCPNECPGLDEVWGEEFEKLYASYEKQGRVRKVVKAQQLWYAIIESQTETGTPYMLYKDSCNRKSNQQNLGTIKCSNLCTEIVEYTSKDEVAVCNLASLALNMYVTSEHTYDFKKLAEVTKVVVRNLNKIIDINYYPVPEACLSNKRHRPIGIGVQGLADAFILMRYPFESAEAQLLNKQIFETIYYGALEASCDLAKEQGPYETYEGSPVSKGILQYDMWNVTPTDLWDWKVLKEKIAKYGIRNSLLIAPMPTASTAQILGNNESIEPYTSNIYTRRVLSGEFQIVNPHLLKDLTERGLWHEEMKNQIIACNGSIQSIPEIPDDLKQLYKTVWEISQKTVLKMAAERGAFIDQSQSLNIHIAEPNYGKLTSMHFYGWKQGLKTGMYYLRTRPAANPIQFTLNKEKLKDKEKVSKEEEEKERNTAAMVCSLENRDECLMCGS
T1 sequence (P31350 1-389 partner): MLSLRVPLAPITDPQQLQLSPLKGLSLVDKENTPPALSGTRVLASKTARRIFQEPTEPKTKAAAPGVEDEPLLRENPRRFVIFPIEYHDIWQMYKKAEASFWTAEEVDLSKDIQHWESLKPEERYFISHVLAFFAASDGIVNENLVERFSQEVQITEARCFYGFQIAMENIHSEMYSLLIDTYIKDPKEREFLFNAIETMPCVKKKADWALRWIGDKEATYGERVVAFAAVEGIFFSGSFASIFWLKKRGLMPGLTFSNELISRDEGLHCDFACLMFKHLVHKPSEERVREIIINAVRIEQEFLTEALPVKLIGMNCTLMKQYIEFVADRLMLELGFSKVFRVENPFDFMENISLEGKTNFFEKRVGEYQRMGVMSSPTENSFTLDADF
Experimental: (§2) The buffer solution (50 mM HEPES at pH 7.6, 5% (v/v) glycerol, 0.1M KCl) and the hRRM2 protein in the buffer solution were prepared under deoxygenated conditions. Both solutions were taken into the glove box and FeNH4SO4 was dissolved in the buffer solution. 5 equivalents of Fe (II) per hRRM2 dimer from FeNH4SO4 (determined by Ferrozine assay) was added to the protein solution and incubated at 4° C. in the glove box. Upon removal of the protein from the glove box, freshly prepared O2-saturated buffer solution (50 mM HEPES at pH 7.6, 5% (v/v) glycerol, 0.1M KCl) was added. Excess iron was removed by S200 10/300 size exclusion chromatography. […] The reaction mixture was pre-incubated for 3 min at 37° C., and 30 μL aliquots were sampled at fixed time intervals after initiating the reaction. Reactions were quenched by immersion in a boiling water bath, cooling, and treatment with alkaline phosphatase. The product ^14-dADP that formed during the reaction was separated from substrate-ADP using boronate affinity chromatography. ^14-dADP was quantified by liquid scintillation counting using a Beckman LS6500 liquid scintillation counter.
(§3) Briefly, boronate chromatography was used to separate the product.

hRR (hRRM1 and hRRM2) [3] = target: T1, hRR (hRRM1 and hRRM2); test: biochemical
Experimental: as §2, §3

[4] = test system: MDA-MB-231, HCT116, A549 and Panc1 cell lines; test: Detailed growth inhibition studies, median effect dose; format: cell-based; details: Homo sapiens; for IC50: 72 h, read-out: median effect dose (Dm), growth inhibitory activity
Experimental: Cell were maintained in standard tissue culture media (RPMI1640, +10% fetal bovine serum, plus antibiotic) and grown in a standard humidified 5% CO2 incubator at 37° C. […] For moderate throughput screening (up to 120 drugs per experiment), cells were seeded into 96 well plates and allowed to attach overnight. The following day media was removed and replaced with fresh compound containing media. Each compound was tested against both cell lines at 3 concentrations; 1 μM, 10 μM and 50 μM, in duplicate. Cells were incubated with compound containing media for three days in a standard 5% CO2 tissue culture incubator. Cell growth was assessed after 3 days using the DNA dye binding assay, as originally described by LaBarca and Paigen. Relative growth was independently calculated for each cell line, based on DNA content from corresponding cells grown in control media plus diluent (DMSO). […] The following day media was removed and replaced with drug containing media.
Over 190 compounds were screened for their ability to inhibit growth and/or induce cell death in established cancer cell lines.

RR = target: T2, RR (Homo sapiens, UniProt P23921); test: In Vivo RR IC50 (Table 2); format: cell-based; details: In Vivo RR IC50^b (μM)
T2 construct: endogenous in cells; host or cells: established human cancer cell lines (MDA-MB-231, HCT-116; also A549, Panc1)
T2 sequence (P23921 1-792): T1 sequence (P23921 1-792)
T2 sequence (P31350 1-389 partner): T1 sequence (P31350 1-389 partner)

Compound: CCOC(=O)C(NC(=O)CN[C@H]1CCCc2sccc21)C(=O)OCC
In Cell IC50 (μM) [1]: ne^b

Compound: CCCCCCCCCCCCCCNC(=O)[C@@H](N)CCN
In Cell IC50 (μM) [1]: ne

Compound: CCC(C)(C)c1ccc(OCCCCNC(=O)c2cc(Oc3ccc([N+](=O)[O-])cc3)c3ccccc3c2O)c(C(C)(C)CC)c1
In Cell IC50 (μM) [1]: ne^b

Compound: CC(NCCCCCO)c1cc(OCc2ccccc2)cc(OCc2ccccc2)c1 (stereo not drawn)
In Cell IC50 (μM) [1]: non-toxic

Compound: CCOC(=O)C[C@@H](CC(=O)NCCN[C@H](C)c1ccc(O)c(C(=O)OC)c1)OC(C)=O
In Cell IC50 (μM) [1]: ne^b

Compound: CCCCCCCCCCCCCCCC(=O)N[C@@H](CCCCN)C(=O)N[C@@H](CCCCN)C(=O)OC
In Cell IC50 (μM) [1]: ne

IC50 (select cancer cell lines): > 10 µM
Compound: O=C(N/N=C/c1cc2ccccc2cc1O)c1ccccc1O

Compound: O=C(N/N=C/c1ccc2cc(O)ccc2c1)c1ccccc1O
IC50 (select cancer cell lines): > 10 µM

Compound: Nc1ccccc1C(=O)N/N=C/c1c(O)ccc2ccccc12
Cellular IC50 (select cancer cell lines): No cytotoxicity

IC50 (hRR (hRRM1 and hRRM2) [2]): 5.3 µM
Compound: O=C(N/N=C/c1c(O)ccc2ccccc12)c1cccnc1
Cellular IC50 (select cancer cell lines): No cytotoxicity

IC50 (hRR (hRRM1 and hRRM2) [3]): 687 µM
Compound: COc1cc(C(=O)N/N=C/c2c(O)ccc3ccccc23)ccc1O
Cellular IC50 (select cancer cell lines): No cytotoxicity

IC50 (select cancer cell lines): > 10 µM
Compound: CN(C)c1ccc(C(=O)N/N=C/c2c(O)ccc3ccccc23)cc1

IC50 (select cancer cell lines): > 10 µM | IC50 (hRR (hRRM1 and hRRM2) [3]): 94.1 µM
Compound: COc1ccc(C(=O)N/N=C/c2c(O)ccc3ccccc23)cc1

IC50 (hRR (hRRM1 and hRRM2) [3]): 86.8 µM
Compound: Cc1ccc(C(=O)N/N=C/c2c(O)ccc3ccccc23)cc1
Cellular IC50 (select cancer cell lines): No cytotoxicity

IC50 (select cancer cell lines): > 10 µM
Compound: Oc1ccc2ccccc2c1/C=N/NCc1ccccc1

Compound: Oc1ccc2ccccc2c1/C=N/Nc1ccc(Br)cc1
IC50 (select cancer cell lines): > 10 µM

IC50 (select cancer cell lines): > 10 µM
Compound: O=[N+]([O-])c1ccc(N/N=C/c2c(O)ccc3ccccc23)cc1

Compound: O=C(N/N=C/c1c[nH]c2ccc(O)cc12)c1ccccc1O
IC50 (select cancer cell lines): > 10 µM

IC50 (select cancer cell lines): > 10 µM | IC50 (hRR (hRRM1 and hRRM2) [2]): 122 µM
Compound: O=S(=O)(N/N=C/c1c(O)ccc2ccccc12)c1ccccc1

Compound: O=S(=O)(Cc1ccccc1)N/N=C/c1c(O)ccc2ccccc12
Cellular IC50 (select cancer cell lines): No cytotoxicity

Compound: O=[N+]([O-])c1ccc(S(=O)(=O)N/N=C/c2c(O)ccc3ccccc23)cc1
Cellular IC50 (select cancer cell lines): No cytotoxicity

IC50 (hRR (hRRM1 and hRRM2) [2]): 298 µM
Compound: CC1(C)C2CC(=O)C1C(CS(=O)(=O)N/N=C/c1c(O)ccc3ccccc13)C2 (stereo not drawn)
Cellular IC50 (select cancer cell lines): No cytotoxicity

IC50 (hRR (hRRM1 and hRRM2) [2]): 6.8 µM
Compound: Cc1ccc(S(=O)(=O)N/N=C/c2c(O)ccc3ccccc23)cc1
Cellular IC50 (select cancer cell lines): No cytotoxicity

Compound: Nc1ccc(C(=O)N/N=C/c2c(O)ccc3ccccc23)cc1Cl
IC50 (select cancer cell lines): > 10 µM

Compound: O=C(N/N=C/c1c(O)ccc2ccccc12)c1ccc([N+](=O)[O-])c(Cl)c1
Cellular IC50 (select cancer cell lines): No cytotoxicity

Compound: COc1ccc(Br)cc1C(=O)N/N=C/c1c(O)ccc2ccccc12
IC50 (select cancer cell lines): > 1 µM

Compound: COc1cc(Br)ccc1C(=O)N/N=C/c1c(O)ccc2ccccc12
IC50 (select cancer cell lines): > 10 µM

Compound: O=C(N/N=C/c1c(O)ccc2ccccc12)OCc1ccccc1
Cellular IC50 (select cancer cell lines): No cytotoxicity

Compound: O=C(N/N=C/c1c[nH]c2ccc([N+](=O)[O-])cc12)c1ccccc1O
Cellular IC50 (select cancer cell lines): No cytotoxicity

Compound: Cc1cccc2c(/C=N/NC(=O)c3ccccc3O)c[nH]c12
Cellular IC50 (select cancer cell lines): No cytotoxicity

IC50 (hRR (hRRM1 and hRRM2) [3]): 8.1 µM
Compound: O=C(c1ccccc1O)n1cc(-c2c(O)ccc3ccccc23)nn1
Cellular IC50 (select cancer cell lines): No cytotoxicity

IC50 (hRR (hRRM1 and hRRM2) [3]): 31.3 µM
Compound: Cc1c(-n2cc(-c3ccc4cc(O)ccc4c3)nn2)c(=O)n(-c2ccccc2)n1C
Cellular IC50 (select cancer cell lines): No cytotoxicity

IC50 (hRR (hRRM1 and hRRM2) [3]): 607 µM
Compound: OCc1ccccc1-n1cc(-c2ccc3cc(O)ccc3c2)nn1
Cellular IC50 (select cancer cell lines): No cytotoxicity

IC50 (hRR (hRRM1 and hRRM2) [3]): 269 µM
Compound: O=c1nc(-n2cc(-c3ccc4cc(O)ccc4c3)nn2)cc[nH]1
Cellular IC50 (select cancer cell lines): No cytotoxicity

Compound: Oc1ccc(CCn2cc(-c3ccc4cc(O)ccc4c3)nn2)cc1
Cellular IC50 (select cancer cell lines): No cytotoxicity

Compound: Oc1ccc2cc(-c3cn(-c4ccc5[nH]ccc5c4)nn3)ccc2c1
Cellular IC50 (select cancer cell lines): No cytotoxicity

IC50 (hRR (hRRM1 and hRRM2) [3]): 40.2 µM
Compound: O=c1oc(-c2ccccc2-c2ccccc2-c2nc3ccccc3c(=O)o2)nc2ccccc12
Cellular IC50 (select cancer cell lines): No cytotoxicity

IC50 (hRR (hRRM1 and hRRM2) [3]): 13.2 µM
Compound: O=C1C=Cc2cc(C3=NC4C=CC=CC4S(=O)(=O)N3)c(=O)oc2C1 (stereo not drawn)
Cellular IC50 (select cancer cell lines): No cytotoxicity

IC50 (hRR (hRRM1 and hRRM2) [3]): 3.8 µM
Compound: O=C(O)c1ccccc1-c1ccccc1C(=O)c1ccc2ccccc2n1
Cellular IC50 (select cancer cell lines): No cytotoxicity

IC50 (hRR (hRRM1 and hRRM2) [3]): 15.3 µM
Compound: O=C(Nc1ccccc1C(=O)O)c1ccc2ccccc2n1
Cellular IC50 (select cancer cell lines): No cytotoxicity

Compound: OC(COc1ccc(OCC(O)CN2CCN(C3c4ccccc4-c4ccccc43)CC2)cc1)CN1CCN(C2c3ccccc3-c3ccccc32)CC1 (stereo not drawn) [compound 2]
IC50 [1]: 3 to 8 µM | IC50 [4]: 1 to 10 µM | inhibition at 10 µM ([4]; read-out: growth inhibition): ~100%

IC50 [1]: 0.06 to 2 µM | IC50 ([4]; set of four cell lines, 3 days): 1 to 10 µM | IC50 (RR; 1 μM, sub-column 1 μM): 0.674 µM | IC50 (RR; 10 μM, sub-column 10 μM): 0.792 µM | IC50 (hRR (hRRM1 and hRRM2) [3]): 39.8 ± 0.9 µM
Compound: O=C(CCCCCCCCC(=O)N/N=C/c1c(O)ccc2ccccc12)N/N=C/c1c(O)ccc2ccccc12 [compound 4, N′1,N′10-bis((E)-(2-hydroxynaphthalenyl)methylene) decanedihydrazide]

Compound: CC(C)(NC(=O)CN1C(=O)c2ccccc2C1=O)C(=O)NCCCC[C@H](NC(=O)CC(O)(C(F)(F)F)C(F)(F)F)C(=O)O [compound 6]
IC50 [1]: 30 µM

Compound: CCCOc1ccc(C(=O)OCCN(CC)CC)cc1NS(=O)(=O)/C=C/c1ccccc1 [compound 8]
In Cell IC50 (μM) [1]: ne^b

Compound: CNCC(=O)N[C@@H](CCCNC(=N)N)C(=O)N[C@H](C(=O)NC(Cc1ccc(O)cc1)C(=O)N[C@H](C(=O)N[C@@H](Cc1cnc[nH]1)C(=O)O)C(C)C)C(C)C (stereo partly drawn) [compound 9] (H-[Sar]RV[ξY]VH-OH)
In Cell IC50 (μM) [1]: non-toxic
